From patent publication US12617773B2, “Azetidin-3-ylmethanol derivatives as CCR6 receptor modulators” (Idorsia Pharmaceuticals Ltd, priority 2020, dated 2026)

biological target: T1, human CCR6 (Homo sapiens, UniProt P51684); test: FLIPR assay (inhibition of CCL20-induced calcium signal); format: cell-based; conditions: HEK-293 cells expressing human CCR6; mean values where determined several times; read-out: FLIPR IC50
T1 construct: expressed in transfected cells; host or cells: HEK-293
T1 sequence (P51684 1-374): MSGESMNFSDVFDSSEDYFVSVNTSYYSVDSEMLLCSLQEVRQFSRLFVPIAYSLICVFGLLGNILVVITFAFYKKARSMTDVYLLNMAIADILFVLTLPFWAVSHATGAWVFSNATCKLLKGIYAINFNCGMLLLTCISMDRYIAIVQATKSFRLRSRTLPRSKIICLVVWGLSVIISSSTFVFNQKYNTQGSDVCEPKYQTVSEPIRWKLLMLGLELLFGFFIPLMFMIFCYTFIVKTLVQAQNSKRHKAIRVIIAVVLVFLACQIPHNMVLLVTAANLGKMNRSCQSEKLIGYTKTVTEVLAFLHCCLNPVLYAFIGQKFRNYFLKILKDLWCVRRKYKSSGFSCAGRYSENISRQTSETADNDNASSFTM
Experimental: FLIPR assay: The bioactivity of compounds is tested in a fluorometric imaging plate reader (FLIPR: Molecular Devices) using engineered HEK-293 cells expressing the human CCR6 (GenBank: AY242126). Frozen cells are plated on Poly-L-Lysine precoated 384-well plates 2 days prior to bioassay in DMEM medium supplemented with 10% FCS and 1% Penicillin-Streptomycin. […] This buffer, but lacking the dye, is also used for washing and compound dilution steps (assay buffer). Cells are washed free of excess dye with a wash-station (Biotek), leaving 40 microliter of assay buffer at the end. Cells were incubated for 15 minutes at room temperature in the dark, before adding compounds. Stock solutions of test compounds are made up at a concentration of 10 mM in DMSO, and serially diluted first in DMSO and then transferred in assay buffer to concentrations required for inhibition dose response curves. After a 45-minute incubation period in assay buffer at room temperature, 10 microliters of each compound dilution are transferred from a compound plate to the plate containing the recombinant cells in the FLIPR instrument according to the manufacturer's instructions. After cells and compounds were preincubated for 30 minutes at room temperature in the dark, 10 microliter agonist CCL20 (Peprotech) at a final concentration of 10 nM is added, again using the FLIPR instrument. Changes in fluorescence are monitored before and after addition of the test compounds and agonist. Emission peak values above base level after CCL20 addition are exported after base line subtraction.
The calculated IC50 values may fluctuate depending on the daily assay performance. Fluctuations of this kind are known to those skilled in the art.

Row | Compound | IC50
1 | COc1ccc(C(C)(O)CCc2cncc([C@@](O)(c3ccc(C(C)C)cc3)C3(C)CN(C)C3)c2)cc1 (some centres unmarked) [Example 68] | 17.9 nM
2 | COc1ccccc1C(C)(O)CCc1cncc([C@@](O)(c2ccc(C(C)C)cc2)C2(C)CN(C)C2)c1 (some centres unmarked) [Example 69] | 16.1 nM
3 | CC(C)c1ccc([C@](O)(c2cncc(CCC(C)(O)c3ccn(C)n3)c2)C2(C)CN(C)C2)cc1 (some centres unmarked) [Example 70] | 434 nM
4 | Cc1nc(C(C)(O)CCc2cncc([C@@](O)(c3ccc(C(C)C)cc3)C3(C)CN(C)C3)c2)cs1 (some centres unmarked) [Example 71] | 147 nM
5 | COc1cccc(C(C)(O)CCc2cncc([C@@](O)(c3ccc(C(C)C)cc3)C3(C)CN(C)C3)c2)n1 (some centres unmarked) [Example 72] | 15 nM
6 | CC(C)c1ccc([C@](O)(c2cncc(CCC(C)(O)c3ncccn3)c2)C2(C)CN(C)C2)cc1 (some centres unmarked) [Example 73] | 112 nM
7 | Cc1cc(C(C)(O)CCc2cncc([C@@](O)(c3ccc(C(C)C)cc3)C3(C)CN(C)C3)c2)nn1C (some centres unmarked) [Example 74] | 154 nM
8 | Cc1cc(C(C)(O)CCc2cncc(C(O)(c3ccc(C(C)C)cc3)C3(C)CN(C)C3)c2)ncn1 (centres unmarked) [Example 75] | 184 nM
9 | Cc1cc(C(O)CCc2cncc([C@@](O)(c3ccc(C(C)C)cc3)C3(C)CN(C)C3)c2)nn1C (some centres unmarked) [Example 76] | 627 nM
10 | CC(C)c1ccc([C@](O)(c2cncc(CCC3(O)CCCc4cccnc43)c2)C2(C)CN(C)C2)cc1 (some centres unmarked) [Example 77] | 52.1 nM
11 | CC(C)c1ccc([C@](O)(c2cncc(CCC3(O)CCc4cccnc43)c2)C2(C)CN(C)C2)cc1 (some centres unmarked) [Example 78] | 80.6 nM
12 | CCC(O)(CCc1cncc([C@@](O)(c2ccc(C(C)C)cc2)C2(C)CN(C)C2)c1)c1ccccn1 (some centres unmarked) [Example 79] | 30 nM
13 | CCC(O)(CCc1cncc(C(O)(c2ccc(C(C)C)cc2)C2(C)CN(C)C2)c1)c1cccc(OC)n1 (centres unmarked) [Example 80] | 10.5 nM
14 | CC(C)c1ccc([C@](O)(c2cncc(CCc3cc4ccccc4[nH]3)c2)C2(C)CN(C)C2)cc1 [Example 81] | 19.1 nM
15 | CN1CC(C)([C@](O)(c2ccc(C3CC3)cc2)c2cncc(-c3nc(C4CCOCC4)no3)c2)C1 [Example 82, (R)-(4-Cyclopropyl-phenyl)-(1,3-dimethyl-azetidin-3-yl)-{5-[3-(tetrahydro-pyran-4-yl)-[1,2,4]oxadiazol-5-yl]-pyridin-3-yl}-methanol] | 185 nM
16 | COCC(C)(C)c1noc(-c2cncc([C@@](O)(c3ccc(C4CC4)cc3)C3(C)CN(C)C3)c2)n1 [Example 83] | 128 nM
17 | CN1CC(C)([C@](O)(c2ccc(C3CC3)cc2)c2cncc(-c3nc(COC4CCC4)no3)c2)C1 [Example 84] | 52.8 nM
18 | CCCc1ccc([C@](O)(c2cncc(-c3nc(COC4CCOCC4)no3)c2)C2(C)CN(C)C2)cc1 [Example 85] | 89.9 nM
19 | CCCc1ccc([C@](O)(c2cncc(-c3nc(C4CCOCC4)no3)c2)C2(C)CN(C)C2)cc1 [Example 86] | 75.3 nM
20 | CCCc1ccc([C@](O)(c2cncc(-c3nc(COC4CCC4)no3)c2)C2(C)CN(C)C2)cc1 [Example 87] | 61.5 nM
21 | CC(C)c1ccc([C@](O)(c2cncc(-c3nc(C4CCOCC4)no3)c2)C2(C)CN(C)C2)cc1 [Example 88] | 98.4 nM
22 | CC(C)c1ccc([C@](O)(c2cncc(-c3nc(CN4CCOCC4)no3)c2)C2(C)CN(C)C2)cc1 [Example 89] | 231 nM
23 | CC1CN(Cc2noc(-c3cncc([C@@](O)(c4ccc(C(C)C)cc4)C4(C)CN(C)C4)c3)n2)CC(C)O1 (some centres unmarked) [Example 90] | 163 nM
24 | CC(C)c1ccc([C@](O)(c2cncc(-c3nc(C4(C)CCOCC4)no3)c2)C2(C)CN(C)C2)cc1 [Example 91] | 46.2 nM
25 | CC(C)c1ccc([C@](O)(c2cncc(-c3nc([C@@H]4C[C@H]5CC[C@@H]4O5)no3)c2)C2(C)CN(C)C2)cc1 [Example 92] | 81.5 nM
26 | CC(C)c1ccc([C@](O)(c2cncc(-c3nc(COC4CCOCC4)no3)c2)C2(C)CN(C)C2)cc1 [Example 93] | 86.8 nM
